Assay results from patent US10510981B2, “Organic light-emitting diode display panel, fabrication method, and electronic apparatus” (Shanghai Tianma AM-OLED Co., Ltd., priority 2017, dated 2019).
In brackets after ≈: the same amount, converted by molar mass.

assay: solubility of the compound adopted in the capping layer; assay type: physicochemical; details: thermodynamic from solid, saturated solution, liquid chromatography against a standard curve, solvent not given
From the text: The test methods may include: • (1) measuring the solubility of the compound adopted in the capping layer, where the test method may include: testing samples with different concentrations of the compound by Ultimate3000 liquid chromatographic instrument manufactured by company “waters”, plotting a standard curve, then testing a saturated solution, and calculating the solubility by combining the standard curve; • (2) measuring light extraction efficiency by an UVISEB ellipsometer from HORIBA (China) Trading Co., Ltd.; and • (3) measuring lifetime by a LTS-1004DC life tester with from supplier ENC.

**Q.** With `CCCCc1ccc(N(c2ccc(C)c(C)c2)c2ccc(-c3ccc(N(c4ccc(CCCC)cc4)c4ccc(C)c(C)c4)c(C)c3)cc2C)cc1` as the compound, how does the solubility read?
**A.** Its solubility is 210 µg/mL (≈ 307 µM).

**Q.** Which solubility does the source give for `Cc1ccc(N(c2ccc(C(C)C)cc2)c2ccc(-c3ccc(N(c4ccc(C(C)C)cc4)c4ccc(C)cc4C)c(C)c3)cc2C)c(C)c1` here?
**A.** The solubility was 205 µg/mL (≈ 312 µM).

**Q.** With `CCCCc1ccc(N(c2ccc(C)cc2C)c2ccc(-c3ccc(N(c4ccc(CCCC)cc4)c4ccc(C)cc4C)c(C)c3)cc2C)cc1` as the compound, how does the solubility read?
**A.** Its solubility is 312 µg/mL (≈ 455 µM).

**Q.** Which solubility does the source give for `Cc1ccc(N(c2ccc(-c3ccc(N(c4ccc(C(C)C)cc4)c4ccc(C)cc4C)cc3)cc2)c2ccc(C(C)C)cc2)c(C)c1` here?
**A.** The solubility was 309 µg/mL (≈ 491 µM).

**Q.** Which solubility does the source give for `Cc1cc(-c2ccc(N(c3ccc(-c4ccccc4)cc3)c3ccc(-c4ccccc4)cc3)c(C)c2)ccc1N(c1ccc(-c2ccccc2)cc1)c1ccc(-c2ccccc2)cc1` here?
**A.** The solubility was 211 µg/mL (≈ 257 µM).

**Q.** With `CCc1ccc(-c2ccc(N(c3ccc(-c4ccc(CC)cc4)cc3)c3ccc(-c4ccc(N(c5ccc(-c6ccc(CC)cc6)cc5)c5ccc(-c6ccc(CC)cc6)cc5)c(C)c4)cc3C)cc2)cc1` as the compound, how does the solubility read?
**A.** The solubility was 210 µg/mL (≈ 225 µM).

**Q.** For `CCCCc1ccc(N(c2ccc(-c3ccc(N(c4ccc(C)c(C)c4)c4ccc(CCCC)c(C)c4)cc3)cc2)c2ccc(C)c(C)c2)cc1C`, which solubility is on record?
**A.** The solubility was 340 µg/mL (≈ 496 µM).

**Q.** Which solubility does the source give for `C=Cc1ccc(N(c2ccc(CCCC)cc2)c2ccc(-c3ccc(N(c4ccc(CCCC)cc4)c4ccc(C=C)c(C)c4)c(C)c3)cc2C)cc1C` here?
**A.** Its solubility is 300 µg/mL (≈ 423 µM).

**Q.** With `C#Cc1ccc(N(c2ccc(CCCC)cc2)c2ccc(-c3ccc(N(c4ccc(CCCC)cc4)c4ccc(C#C)c(C)c4)c(C)c3)cc2C)cc1C` as the compound, how does the solubility read?
**A.** Its solubility is 298 µg/mL (≈ 423 µM).

**Q.** With `CCCCc1ccc(N(c2ccc(-c3ccc(N(c4ccc(CCCC)cc4)C4CCCCC4)c(C)c3)cc2C)C2CCCCC2)cc1` [reference compound] as the compound, how does the solubility read?
**A.** Its solubility is 566 µg/mL (≈ 883 µM).

**Q.** For `Cc1cc(-c2ccc(N(c3ccc(-c4ccc(-c5ccccc5)cc4)cc3)c3ccc(-c4ccc(-c5ccccc5)cc4)cc3)c(C)c2)ccc1N(c1ccc(-c2ccc(-c3ccccc3)cc2)cc1)c1ccc(-c2ccc(-c3ccccc3)cc2)cc1` [reference compound], which solubility is on record?
**A.** Its solubility is 430 µg/mL (≈ 382 µM).
